Source: patent publication US4372948A, “Derivative of saccharide and physiologically active agent containing the same” (Kureha Kagaku Kogyo Kabushiki Kaisha, priority 1980, dated 1983)

Columns and labels:
in vivo = details: mouse, in vivo, po, mice, 7 days observation, read-out: LD50, acute oral toxicity
level of blood sugar = experiment: Anti-hyperglycemia activity (reduction of blood sugar level); assay type: in vivo, rat (Wistar, streptozotocin); details: oral, 300 mg/kg
Procedure: A group of Wistar rats to which at first streptozotocin was interperitoneally administered at a rate of 60 mg/kg and of which the positivity of glycosuria was confirmed after a week of the administration and to which regular insulin was further administered and of which the reduction of levels of glucose in urine and blood was once confirmed, however, of which hyperglycemia and hyperglycosuria were again confirmed after a few days was chosen and used as model animals of glycosuria in the following test. After orally administering each of the present compounds to the model animals at a dose of 300 mg/kg body weight, as a solution or dispersion in distilled water, the blood was collected two times, respectively after 3 and 6 hours of the administration.

blood pressure = experiment: Anti-hypertension activity (reduction of blood pressure); assay type: in vivo, rat (spontaneous hypertension); details: oral, 300 mg/kg
Procedure: Rats of spontaneous hypertension were orally administered with each of the present compounds as a solution or dispersion in distilled water at a dose rate of 300 mg/kg body weight. After 3 and 6 hours of the administration, the blood pressure of each rat was determined, and the difference between the above-determined value and the value just before the administeration was used as the index of the activity of reducing the blood pressure of the compound.

Sarcoma-180 = experiment: Anti-tumour activity against Sarcoma-180; assay type: in vivo, mouse (ICR-JCL); details: Mus musculus, Sarcoma-180, po, 600 h, 10 times every other day, tumour weight on 25th day, read-out: Antitumour activity, inhibiting rate (I.R.)
Procedure: Sarcoma-180 was transplanted into the axillary part of ICR-JCL mice at a rate of 1×10^6 cells/animal, and after 24 hours of transplantation, each of the present compounds as a solution or dispersion in sterilized physiological saline solution was orally administered to each of the transplanted mice 10 times every other day at a dose of 500 mg/kg/time. On 25th day of the transplantation, tumour node(s) were extirpated from all the mice to determine the weight of the tumour nodes.
Antitumour activity (activity of inhibiting the proliferation of the transplanted sarcoma) of each of the present compounds was derived by the following formula and shown in Table 6:
Antitumour activity (Inhibiting rate, I.R.)=(1-T/C)×100(%).
T represents the total weight of tumour nodes of the group of mice transplanted and administered with the present compound, and
C represents the total weight of tumour nodes of the group of mice transplanted, however, not administered with any agents.

total cholesterol = experiment: Anti-hyperlipemia activity, total cholesterol in blood; assay type: in vivo, rabbit (Japanese white male); details: oral, 300 mg/kg once; for Reduction of cholesterol level after 3 hrs.: negative = raising
Procedure: (§1) Japanese white male rabbits were fed for 3 months with a solid diet containing 1% of cholesterol taken ad lib, and after confirming the raised lipid content of the serum of the rabbits, they were utilized as model animals suffering from experimental arteriosclerosis. Each of the present compounds was administered orally as a solution or dispersion in distilled water to the experimental animals of each group at a dose rate of 300 mg/kg once, and blood samples were taken at a predetermined time interval from the auricular vein of each animal. The content of cholesterol in the blood specimen was traced as the time passed by, with an enzymatic method, and the content of beta-lipoprotein in the same blood specimen was traced with a colorimetry. Each value in Table 7 is the difference between the level just before administration and the level after 3 or 6 hours of the administration.

beta-lipoprotein = experiment: Anti-hyperlipemia activity, beta-lipoprotein in blood; assay type: in vivo, rabbit (Japanese white male); details: oral, 300 mg/kg once
Procedure: as §1

carrageenin edema = experiment: Anti-Carrageenin edema activity; assay type: in vivo, rat; details: Rattus norvegicus, po, 1000 mg/kg once, read-out: I.R. against carrageenin edema
Procedure: After orally administering each of the present compounds forcibly to each group of rats, composed of 10 animals, as a solution or dispersion in distilled water at a dose of 1000 mg/kg once, 0.1 ml of an aqueous dispersion of 1% carrageenin in aqueous physiological saline solution was injected into the foot pad of the right hind leg of the administered animal following Van Arman et al. (1963). Thereafter, the thickness of the foot pad was measured at a time interval to find the rate of inhibiting of the swelling of the foot pad according to the following formula:
(§2) Rate of inhibition (I.R.) (%)=(1-T/C)×100
T means the average volume of the foot pad of the animals administered with one of the present compounds and carrageenin, and
C means that of the animal not administered with the present compound, however, administered with carrageenin.

cotton pellet granuloma = experiment: Anti-granuloma activity (cotton pellet); assay type: in vivo, rat; details: Rattus norvegicus, po, 192 h, 7 days, read-out: I.R. against cotton pellet edema
Procedure: Following the method of Winter et al. (1963), each two cotton wool pellets, each weighing 30±1 mg, were implanted into the back of each rats of groups of rats, each group consisting of 6 animals, at the positions of mutually symmetrical concerning the median line of the rat. To these groups of the thus operated rats, the present compounds were respectively administered orally and forcibly as a solution or dispersion in distilled water for 7 continuous days, once a day at a dose of 1000 mg/kg/day. On 8th day of the implantation, the granuloma was extirpated and the dry weight of the granuloma was measured, the rate of inhibiting the proliferation of granuloma being obtained as in (5-1) being shown in Table 8.

exudation = experiment: Anti-exudation activity (air pouch, croton oil); assay type: in vivo, rat; details: 5 days; for inhibition in vivo at 1000 mg/kg/day: Rattus norvegicus, po, 144 h, read-out: I.R. against exudation
Procedure: Following the method of Baris et al. (1965), air was injected subcutaneously into the back of groups of rats, each group consisting of 6 animals to make an air pouch, and 0.5 ml of sesame oil containing 1% by weight of croton oil was injected into the air pouch. Each of the present compounds was orally administered forcibly to each of the groups of rats as a solution or dispersion in distilled water at a dose rate of 1000 mg/kg/day for continued five days. The amount of liquid exudated into the air pouch was measured on 6th day of the operation. The rate of inhibiting the exudation of the liquid was obtained by the same manner as in (5-2) and the results are shown also in Table 8.

[1] = tested on: pseudo-escaping reaction to tail pressure; experiment: Analgetic activity against mechanical stimulation of pressure; assay type: in vivo, mouse (ICR female); details: oral, 1000 mg/kg
acetic acid writhing = experiment: Analgetic activity against chemical stimulation of acetic acid (writhing); assay type: in vivo, mouse (ICR female); details: Mus musculus, po, 30 min before 0.6% acetic acid, read-out: I.R. of writhing
Description: as §2
T represents the average number of writhing of the group of mice administered with the present compound and injected with acetic acid, and C represents the average number of writhing of the group of mice only injected with acetic acid (control).

[2] = tested on: pyrexia (Saccharomyces cerevisiae); experiment: Anti-pyrexia activity (yeast-induced); assay type: in vivo; details: Rattus norvegicus, oral, read-out: Rate of inhibiting pyrexia (I.R.)
Procedure: Following the method of Winter et al. (1961), an aqueous dispersion of 20% by weight of Saccharomyces cerevisiae was subcutaneously injected into groups of rats, each group consisting of 6 animals, and after 10-hour fasting, 1000 mg/kg of each of the present compounds was orally administered to the rat as a solution of dispersion in distilled water, and then the rectal temperature of the rat was measured at a predetermined interval of time to find the lowest temperature.
The anti-pyrexia activity of each compound was obtained from the following formula: […]
Anti-pyrexia activity represented by the rate of inhibition (I.R.)
C2 represents the average rectal temperature of negative control (non-treatment), not injected with the yeast and not administered with the present compound,
C1 represents the average temperature of positive control, injected with the yeast and not administered with the compound and T represents the temperature of tested animals, injected with the yeast and administered with the present compound.

Row | SMILES | LD50 at 168 h (in vivo) | Reduced level of blood sugar after 3 hrs. (level of blood sugar) | Reduced level of blood sugar after 6 hrs. (level of blood sugar) | Reduced level of blood pressure after 3 hrs. (blood pressure) | Reduced level of blood pressure after 6 hrs. (blood pressure) | inhibition in vivo at 500 mg/kg (Sarcoma-180) | Reduction of cholesterol level after 3 hrs. (total cholesterol) | Reduction of cholesterol level after 6 hrs. (total cholesterol) | Reduction of beta-lipoprotein level after 3 hrs. (beta-lipoprotein) | Reduction of beta-lipoprotein level after 6 hrs. (beta-lipoprotein) | inhibition in vivo at 1000 mg/kg (carrageenin edema) | inhibition in vivo at 1000 mg/kg/day (cotton pellet granuloma) | inhibition in vivo at 1000 mg/kg/day (exudation) | Pseudo-escapting reaction pressure [1] | Pseudo-escapting reaction time [1] | inhibition in vivo at 1000 mg/kg (acetic acid writhing) | inhibition in vivo at 1000 mg/kg [2] | other results
1 | NC(=O)c1ccccc1NC1(CO)OC[C@@H](O)[C@@H](O)[C@@H]1O (stereo partly drawn) [Compound 1, o-Aminobenzoic acid amide-N-D-fructoside] | 11800 mg/kg | 68 mg/dL | 92 mg/dL | 16 mm Hg | 19 mm Hg | 42% | -2 mg/dL | 36 mg/dL | 120 mg/dL | 131 mg/dL | 15.6% | 6.6% | 17.5% | 78 mmHg | 38 s | 17% | 41% | 
2 | NC(=O)c1cccc(NC2O[C@H](CO)[C@@H](O[C@@H]3O[C@H](CO)[C@@H](O)[C@H](O)[C@H]3O)[C@H](O)[C@H]2O)c1 (stereo partly drawn) [Compound 2, m-aminobenzoic acid amide-N-cellobioside] | > 15000 mg/kg | 85 mg/dL | 103 mg/dL | 20 mm Hg | 22 mm Hg | 35% | 1 mg/dL | 30 mg/dL | 108 mg/dL | 124 mg/dL | 20.3% | 6.1% | 6.6% | 84 mmHg | 42 s | 20% | 36% | 
3 | NC(=O)c1ccc(NC2OC[C@@H](O)[C@H](O)[C@H]2O)cc1 (stereo partly drawn) [Compound 3, p-aminobenzoic acid amide-N-D-xyloside] | > 15000 mg/kg | 101 mg/dL | 115 mg/dL | 20 mm Hg | 24 mm Hg | 47% | 3 mg/dL | 45 mg/dL | 115 mg/dL | 119 mg/dL | 26.5% | 7% | 19.1% | 93 mmHg | 44 s | 22% | 20% | 
4 | NC(=O)c1ccc(NC2O[C@H](CO)[C@@H](O)[C@H](O)[C@@H]2O)cc1 (stereo partly drawn) [Compound 4, p-aminobenzoic acid amide-N-D-mannoside] | 13600 mg/kg | 110 mg/dL | 116 mg/dL | 14 mm Hg | 20 mm Hg | 42% | 0 mg/dL | 46 mg/dL | 123 mg/dL | 135 mg/dL | 12.1% | 14.9% | 5.7% | 96 mmHg | 45 s | 41% | 28% | 
5 | C[C@@H]1OC(Nc2ccc(CC(=O)O)cc2)[C@H](O)[C@H](O)[C@H]1O (stereo partly drawn) [Compound 27, p-aminophenylacetic acid-N-L-rhamnoside] | 13800 mg/kg | 91 mg/dL | 90 mg/dL | 20 mm Hg | 20 mm Hg | 43% |  |  |  |  | 5.2% | 23.1% |  | 91 mmHg | 40 s | 35% |  | Reduction of cholesterol level after 3 hrs. (total cholesterol; 300 mg/kg): 1 mg/dL; Reduction of cholesterol level after 6 hrs. (total cholesterol; 300 mg/kg): 30 mg/dL; Reduction of beta-lipoprotein level after 3 hrs. (beta-lipoprotein; 300 mg/kg): 125 mg/dL; Reduction of beta-lipoprotein level after 6 hrs. (beta-lipoprotein; 300 mg/kg): 130 mg/dL; I.R. against exudation (exudation; oral, 1000 mg/kg/day): 16.5%
